Measured values taken from ChEMBL document CHEMBL2439979 (Bioorg Med Chem Lett, 2013).

Columns and labels:
[1] = molecular target: T1, Muscarinic acetylcholine receptor M4 (Homo sapiens, UniProt P08173); assay: Displacement of [3H]NMS from human muscarinic M4 receptor expressed in CHO cells
T1 sequence (P08173 whole entry): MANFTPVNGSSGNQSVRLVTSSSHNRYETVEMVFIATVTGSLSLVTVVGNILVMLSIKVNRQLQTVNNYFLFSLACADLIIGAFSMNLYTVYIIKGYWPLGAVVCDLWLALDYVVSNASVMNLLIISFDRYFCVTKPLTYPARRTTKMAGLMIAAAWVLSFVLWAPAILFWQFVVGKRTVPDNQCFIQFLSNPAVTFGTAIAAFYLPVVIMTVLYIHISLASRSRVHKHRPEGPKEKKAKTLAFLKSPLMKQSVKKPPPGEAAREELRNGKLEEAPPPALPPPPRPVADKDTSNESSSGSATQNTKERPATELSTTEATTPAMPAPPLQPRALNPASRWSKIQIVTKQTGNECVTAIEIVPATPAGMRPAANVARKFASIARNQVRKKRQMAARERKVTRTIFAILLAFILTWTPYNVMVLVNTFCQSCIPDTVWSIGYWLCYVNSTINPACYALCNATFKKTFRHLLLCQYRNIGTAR

[2] = molecular target: T2, Muscarinic acetylcholine receptor M1 (Homo sapiens, UniProt P11229); assay: Displacement of [3H]NMS from human muscarinic M1 receptor expressed in CHO cells
T2 sequence (P11229 whole entry): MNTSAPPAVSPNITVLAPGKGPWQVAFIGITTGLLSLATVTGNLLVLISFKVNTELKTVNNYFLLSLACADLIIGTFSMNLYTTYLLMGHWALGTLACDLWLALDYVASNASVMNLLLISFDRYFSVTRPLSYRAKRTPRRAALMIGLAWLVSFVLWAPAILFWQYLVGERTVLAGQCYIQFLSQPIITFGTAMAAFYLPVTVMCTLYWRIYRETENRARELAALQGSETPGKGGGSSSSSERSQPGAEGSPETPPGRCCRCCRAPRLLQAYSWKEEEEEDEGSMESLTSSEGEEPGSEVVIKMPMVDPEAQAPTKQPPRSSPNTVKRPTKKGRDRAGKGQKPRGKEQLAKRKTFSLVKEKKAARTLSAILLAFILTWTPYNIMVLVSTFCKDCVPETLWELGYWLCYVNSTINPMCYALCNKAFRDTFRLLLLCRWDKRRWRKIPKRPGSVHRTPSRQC

[3] = molecular target: Neuronal acetylcholine receptor subunit alpha-7 (Rattus norvegicus, UniProt Q05941); assay: Displacement of [125I]-alpha-bungarotoxin from alpha7 nAChR in rat hippocampus membranes; type: cell membranes, Membrane
[4] = molecular target: T3, Muscarinic acetylcholine receptor M2 (Homo sapiens, UniProt P08172); assay: Displacement of [3H]NMS from human muscarinic M2 receptor expressed in CHO cells
T3 sequence (P08172 whole entry): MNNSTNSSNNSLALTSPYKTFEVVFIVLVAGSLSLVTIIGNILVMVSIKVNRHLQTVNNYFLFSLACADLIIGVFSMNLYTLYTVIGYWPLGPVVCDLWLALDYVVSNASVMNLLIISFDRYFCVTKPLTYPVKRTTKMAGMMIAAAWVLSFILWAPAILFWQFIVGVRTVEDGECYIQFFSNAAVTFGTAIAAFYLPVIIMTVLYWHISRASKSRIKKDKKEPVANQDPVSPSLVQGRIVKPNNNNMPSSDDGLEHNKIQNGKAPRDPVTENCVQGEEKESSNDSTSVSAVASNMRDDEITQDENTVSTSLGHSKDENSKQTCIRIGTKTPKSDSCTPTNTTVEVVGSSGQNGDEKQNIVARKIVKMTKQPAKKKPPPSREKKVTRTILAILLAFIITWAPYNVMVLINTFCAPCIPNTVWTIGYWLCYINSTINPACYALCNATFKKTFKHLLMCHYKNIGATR

[5] = molecular target: Muscarinic acetylcholine receptor M3 (Homo sapiens, UniProt P20309); assay: Displacement of [3H]NMS from human muscarinic M3 receptor expressed in CHO cells
[6] = molecular target: Neuronal acetylcholine receptor; alpha4/beta2 (Rattus norvegicus, UniProt P09483+P12390); assay: Displacement of [3H]-epibatidine from alpha4beta2 nAChR in rat cortex hippocampus; type: tissue-based
[7] = molecular target: T4, Muscarinic acetylcholine receptor M5 (Homo sapiens, UniProt P08912); assay: Displacement of [3H]NMS from human muscarinic M5 receptor expressed in CHO cells
T4 sequence (P08912 whole entry): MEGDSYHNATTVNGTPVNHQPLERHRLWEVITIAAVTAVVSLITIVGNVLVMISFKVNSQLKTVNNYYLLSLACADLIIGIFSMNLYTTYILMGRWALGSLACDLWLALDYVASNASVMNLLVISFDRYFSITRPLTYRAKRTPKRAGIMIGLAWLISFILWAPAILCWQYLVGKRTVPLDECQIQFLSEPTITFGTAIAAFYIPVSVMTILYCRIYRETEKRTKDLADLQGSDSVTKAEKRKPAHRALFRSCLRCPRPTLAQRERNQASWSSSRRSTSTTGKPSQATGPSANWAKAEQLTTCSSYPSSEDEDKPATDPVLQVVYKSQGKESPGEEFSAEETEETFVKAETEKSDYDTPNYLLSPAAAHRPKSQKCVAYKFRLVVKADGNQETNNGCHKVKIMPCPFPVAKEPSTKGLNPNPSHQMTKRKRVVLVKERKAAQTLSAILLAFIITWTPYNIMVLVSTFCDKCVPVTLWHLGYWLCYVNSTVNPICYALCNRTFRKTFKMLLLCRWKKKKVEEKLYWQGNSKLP

[8] = molecular target: Neuronal acetylcholine receptor subunit alpha-7 (Homo sapiens, UniProt P36544); assay: Binding affinity to alpha7 nAChR (unknown origin)
[9] = molecular target: Neuronal acetylcholine receptor; alpha4/beta2 (Homo sapiens, UniProt P17787+P43681); assay: Binding affinity to alpha4beta2 nAChR (unknown origin); type: protein-complex assay
[10] = molecular target: Muscarinic acetylcholine receptor; assay: Binding affinity to muscarinic M1/M5 receptor (unknown origin); type: protein assay, Homo sapiens

Neuronal acetylcholine receptor; alpha4/beta2 (Homo sapiens, UniProt P17787+P43681), sequence (P17787 whole entry): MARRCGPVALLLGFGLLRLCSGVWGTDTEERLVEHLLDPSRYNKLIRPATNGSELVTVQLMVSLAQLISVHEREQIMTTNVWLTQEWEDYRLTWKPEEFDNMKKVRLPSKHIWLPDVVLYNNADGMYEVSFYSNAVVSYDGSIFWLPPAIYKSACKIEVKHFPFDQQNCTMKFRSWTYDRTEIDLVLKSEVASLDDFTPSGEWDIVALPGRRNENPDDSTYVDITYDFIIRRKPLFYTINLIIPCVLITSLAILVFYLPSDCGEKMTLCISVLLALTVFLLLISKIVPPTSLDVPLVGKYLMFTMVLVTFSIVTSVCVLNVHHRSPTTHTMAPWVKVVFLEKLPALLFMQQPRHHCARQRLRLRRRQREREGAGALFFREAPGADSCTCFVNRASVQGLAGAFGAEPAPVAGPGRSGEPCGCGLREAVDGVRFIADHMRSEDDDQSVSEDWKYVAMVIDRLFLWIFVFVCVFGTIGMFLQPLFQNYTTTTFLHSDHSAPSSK
Neuronal acetylcholine receptor; alpha4/beta2 (Homo sapiens, UniProt P17787+P43681), sequence (P43681 whole entry): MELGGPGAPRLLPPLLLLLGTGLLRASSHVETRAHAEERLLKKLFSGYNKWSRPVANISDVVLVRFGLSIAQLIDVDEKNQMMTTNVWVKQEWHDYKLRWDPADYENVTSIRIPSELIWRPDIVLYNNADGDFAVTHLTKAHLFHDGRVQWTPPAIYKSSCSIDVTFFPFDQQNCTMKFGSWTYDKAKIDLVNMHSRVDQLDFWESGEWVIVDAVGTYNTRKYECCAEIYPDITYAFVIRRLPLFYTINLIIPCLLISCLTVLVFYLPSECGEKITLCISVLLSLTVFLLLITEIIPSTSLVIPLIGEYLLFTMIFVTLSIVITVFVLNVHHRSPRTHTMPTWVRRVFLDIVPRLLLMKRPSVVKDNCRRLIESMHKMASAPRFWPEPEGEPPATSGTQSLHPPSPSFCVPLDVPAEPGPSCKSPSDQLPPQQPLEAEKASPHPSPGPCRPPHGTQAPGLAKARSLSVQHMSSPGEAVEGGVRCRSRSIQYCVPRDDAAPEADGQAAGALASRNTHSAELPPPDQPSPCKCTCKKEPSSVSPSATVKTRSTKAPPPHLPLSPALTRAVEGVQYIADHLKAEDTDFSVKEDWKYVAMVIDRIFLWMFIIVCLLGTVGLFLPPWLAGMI
Neuronal acetylcholine receptor; alpha4/beta2 (Rattus norvegicus, UniProt P09483+P12390), sequence (P09483 whole entry): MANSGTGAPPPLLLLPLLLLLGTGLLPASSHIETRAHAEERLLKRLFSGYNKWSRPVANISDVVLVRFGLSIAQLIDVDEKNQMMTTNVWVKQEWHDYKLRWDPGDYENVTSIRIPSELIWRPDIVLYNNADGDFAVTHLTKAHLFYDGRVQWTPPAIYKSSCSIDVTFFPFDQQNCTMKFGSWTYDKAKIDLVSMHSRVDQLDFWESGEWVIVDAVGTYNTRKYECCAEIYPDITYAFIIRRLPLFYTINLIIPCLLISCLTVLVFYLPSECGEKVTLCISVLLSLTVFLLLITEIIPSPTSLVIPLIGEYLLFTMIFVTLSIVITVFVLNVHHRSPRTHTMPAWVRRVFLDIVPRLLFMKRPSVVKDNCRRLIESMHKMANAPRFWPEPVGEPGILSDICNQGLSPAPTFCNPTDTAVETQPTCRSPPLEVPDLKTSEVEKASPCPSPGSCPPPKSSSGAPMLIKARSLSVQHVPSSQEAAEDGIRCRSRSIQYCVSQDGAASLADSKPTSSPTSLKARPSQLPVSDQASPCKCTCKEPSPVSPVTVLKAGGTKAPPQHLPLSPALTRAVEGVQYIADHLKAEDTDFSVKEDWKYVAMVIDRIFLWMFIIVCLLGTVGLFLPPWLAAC
Neuronal acetylcholine receptor; alpha4/beta2 (Rattus norvegicus, UniProt P09483+P12390), sequence (P12390 whole entry): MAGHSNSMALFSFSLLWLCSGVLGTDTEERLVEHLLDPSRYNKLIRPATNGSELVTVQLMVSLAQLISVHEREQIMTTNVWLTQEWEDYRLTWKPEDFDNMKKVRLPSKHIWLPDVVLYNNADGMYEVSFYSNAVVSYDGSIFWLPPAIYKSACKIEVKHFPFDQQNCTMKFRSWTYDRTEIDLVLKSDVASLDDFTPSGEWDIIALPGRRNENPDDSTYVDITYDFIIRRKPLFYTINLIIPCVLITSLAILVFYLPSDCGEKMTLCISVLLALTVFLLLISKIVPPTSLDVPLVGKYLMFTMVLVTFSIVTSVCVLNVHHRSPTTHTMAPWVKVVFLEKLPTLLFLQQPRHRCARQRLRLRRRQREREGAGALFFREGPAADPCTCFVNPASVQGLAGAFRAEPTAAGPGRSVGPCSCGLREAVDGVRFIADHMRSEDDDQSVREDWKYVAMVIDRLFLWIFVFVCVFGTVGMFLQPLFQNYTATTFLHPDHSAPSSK
Neuronal acetylcholine receptor subunit alpha-7 (Rattus norvegicus, UniProt Q05941), sequence (Q05941 whole entry): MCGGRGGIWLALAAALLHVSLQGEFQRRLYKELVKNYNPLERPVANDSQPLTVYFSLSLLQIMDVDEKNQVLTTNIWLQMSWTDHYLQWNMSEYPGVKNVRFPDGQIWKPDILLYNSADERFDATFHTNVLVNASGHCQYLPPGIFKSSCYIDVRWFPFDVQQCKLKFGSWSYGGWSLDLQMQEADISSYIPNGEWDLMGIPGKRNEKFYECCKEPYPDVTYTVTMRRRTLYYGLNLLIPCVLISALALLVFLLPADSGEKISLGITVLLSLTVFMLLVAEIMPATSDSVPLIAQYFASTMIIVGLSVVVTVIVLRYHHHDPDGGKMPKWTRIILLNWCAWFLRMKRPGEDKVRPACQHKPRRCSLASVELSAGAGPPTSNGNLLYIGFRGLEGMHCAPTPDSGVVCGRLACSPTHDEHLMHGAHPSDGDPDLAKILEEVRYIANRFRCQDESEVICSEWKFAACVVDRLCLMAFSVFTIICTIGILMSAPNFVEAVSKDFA
Muscarinic acetylcholine receptor M3, sequence (P20309 whole entry): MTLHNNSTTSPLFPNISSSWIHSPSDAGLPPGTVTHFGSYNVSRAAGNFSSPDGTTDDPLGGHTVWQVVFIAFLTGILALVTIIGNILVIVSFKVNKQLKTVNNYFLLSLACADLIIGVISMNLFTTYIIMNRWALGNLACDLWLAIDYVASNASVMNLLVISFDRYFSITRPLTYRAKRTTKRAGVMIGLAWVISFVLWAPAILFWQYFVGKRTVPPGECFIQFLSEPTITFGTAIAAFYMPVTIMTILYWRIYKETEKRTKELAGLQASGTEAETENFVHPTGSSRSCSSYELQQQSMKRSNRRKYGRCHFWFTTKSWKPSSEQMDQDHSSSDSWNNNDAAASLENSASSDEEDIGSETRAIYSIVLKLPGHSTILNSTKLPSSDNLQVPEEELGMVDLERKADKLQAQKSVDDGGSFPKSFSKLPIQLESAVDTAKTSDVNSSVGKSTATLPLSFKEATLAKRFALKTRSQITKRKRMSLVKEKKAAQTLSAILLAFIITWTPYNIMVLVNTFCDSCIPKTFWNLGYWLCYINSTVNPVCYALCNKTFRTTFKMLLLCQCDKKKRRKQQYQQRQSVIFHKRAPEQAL
Neuronal acetylcholine receptor subunit alpha-7 (Homo sapiens, UniProt P36544), sequence (P36544 whole entry): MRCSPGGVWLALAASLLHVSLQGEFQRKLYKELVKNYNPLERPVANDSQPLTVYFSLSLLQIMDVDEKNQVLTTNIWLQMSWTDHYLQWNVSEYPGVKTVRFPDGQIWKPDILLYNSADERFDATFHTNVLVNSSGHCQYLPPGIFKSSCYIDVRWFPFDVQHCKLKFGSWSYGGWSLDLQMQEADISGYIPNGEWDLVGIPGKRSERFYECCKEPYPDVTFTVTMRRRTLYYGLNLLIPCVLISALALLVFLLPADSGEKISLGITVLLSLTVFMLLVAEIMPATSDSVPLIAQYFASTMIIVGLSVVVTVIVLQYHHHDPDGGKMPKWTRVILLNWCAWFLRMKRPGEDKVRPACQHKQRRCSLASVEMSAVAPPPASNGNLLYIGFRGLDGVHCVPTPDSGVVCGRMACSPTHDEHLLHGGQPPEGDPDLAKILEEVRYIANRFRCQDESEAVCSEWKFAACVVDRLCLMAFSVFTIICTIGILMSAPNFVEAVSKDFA

Row | SMILES | Ki [1] | Ki [2] | Ki [3] | Ki [4] | Ki [5] | Ki [6] | Ki [7] | Ki [8] | Ki [9] | Ki [10]
1 | CN(C)C[C@H]1CNC(=O)O1 | > 100 µM | > 100 µM | 41 µM | > 100 µM | > 100 µM | 0.45 µM | > 100 µM | – | – | –
2 | CNC(=O)OCC[N+](C)(C)C | – | – | – | – | – | – | – | 44 µM | 0.023 µM | 0.15 µM
3 | CN1C[C@@H](C[N+](C)(C)C)OC1=O | > 100 µM | > 100 µM | 30 µM | > 100 µM | > 100 µM | 3.61 µM | > 100 µM | – | – | –
4 | CN1C[C@H](C[N+](C)(C)C)OC1=O | > 100 µM | > 100 µM | 18.6 µM | > 100 µM | > 100 µM | 3.1 µM | > 100 µM | – | – | –
5 | CN(C)C[C@@H]1CNC(=O)O1 | > 100 µM | > 100 µM | 94 µM | > 100 µM | > 100 µM | 0.452 µM | > 100 µM | – | – | –
6 | C[N+](C)(C)C[C@@H]1CNC(=O)O1 | > 100 µM | > 100 µM | 45 µM | > 100 µM | > 100 µM | 0.429 µM | > 100 µM | – | – | –
7 | CN1CCC[C@H]1[C@H]1COC(=O)N1 | > 100 µM | > 100 µM | 50 µM | > 100 µM | > 100 µM | 14 µM | > 100 µM | – | – | –
8 | CN1CCC[C@H]1[C@@H]1COC(=O)N1 | > 100 µM | > 100 µM | 64 µM | > 100 µM | > 100 µM | 9 µM | > 100 µM | – | – | –
9 | CN1CCC[C@H]1COC(N)=O | > 100 µM | > 100 µM | 78 µM | > 100 µM | > 100 µM | 0.693 µM | > 100 µM | – | – | –
10 | C[N+]1(C)CCC[C@H]1COC(N)=O | > 100 µM | > 100 µM | 1.8 µM | > 100 µM | > 100 µM | 1.06 µM | > 100 µM | – | – | –
11 | CC(C[N+](C)(C)C)OC(N)=O (stereo not drawn) [BETHANECHOL] | – | – | – | – | – | – | – | – | – | 0.097 µM
12 | CN(C)C[C@@H]1CN(C)C(=O)O1 | > 100 µM | > 100 µM | 449 µM | > 100 µM | > 100 µM | 2.66 µM | > 100 µM | – | – | –
13 | C[N+](C)(C)CCOC(N)=O [CARBAMOYLCHOLINE] | – | – | – | – | – | – | – | 66 µM | – | –
14 | CN(C)C(=O)OCC[N+](C)(C)C | – | – | – | – | – | – | – | – | 0.02 µM | 1.2 µM
15 | CN1CCC[C@H]1[C@@H]1CNC(=O)O1 | > 100 µM | > 100 µM | – | > 100 µM | > 100 µM | – | > 100 µM | – | – | –
16 | CN1CCC[C@H]1[C@H]1CNC(=O)O1 | > 100 µM | > 100 µM | – | > 100 µM | > 100 µM | – | > 100 µM | – | – | –
17 | CN(C)CCOC(=O)N(C)C [2-(DIMETHYLAMINO)ETHYL DIMETHYLCARBAMATE] | – | – | – | – | – | – | – | – | 5.7 µM | 18 µM
18 | C[N+](C)(C)C[C@H]1CNC(=O)O1 | > 100 µM | > 100 µM | 47 µM | > 100 µM | > 100 µM | 0.396 µM | > 100 µM | – | – | –
19 | CN(C)C[C@H]1CN(C)C(=O)O1 | > 100 µM | > 100 µM | 158 µM | > 100 µM | > 100 µM | 2.2 µM | > 100 µM | – | – | –
